Laboratory results taken from PubChem BioAssay (NCI).
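Interpolation was linear, between the two tested concentrations surrounding the appropriate level; five concentrations were tested over 48 hours in 96-well plates. TGI marks complete inhibition of growth.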

Tests used:
Experiment in all cases: NCI anticancer screen, dose series, 48 h
SF-268 CNS = test system: SF-268 CNS
HOP-62 NSCLC = test system: HOP-62 NSCLC
DMS 114 small cell lung = test system: DMS 114 small cell lung
SF-295 CNS = test system: SF-295 CNS
KM12 colon = test system: KM12 colon
SK-MEL-2 melanoma = test system: SK-MEL-2 melanoma
SN12C renal = test system: SN12C renal
M19-MEL melanoma = test system: M19-MEL melanoma
SK-MEL-5 melanoma = test system: SK-MEL-5 melanoma
OVCAR-5 ovarian = test system: OVCAR-5 ovarian
RPMI-8226 leukemia = test system: RPMI-8226 leukemia
SW-620 colon = test system: SW-620 colon
OVCAR-3 ovarian = test system: OVCAR-3 ovarian
CAKI-1 renal = test system: CAKI-1 renal
UACC-62 melanoma = test system: UACC-62 melanoma
UACC-257 melanoma = test system: UACC-257 melanoma
SF-539 CNS = test system: SF-539 CNS
NCI-H23 lung = test system: NCI-H23 lung
MALME-3M melanoma = test system: MALME-3M melanoma
EKVX NSCLC = test system: EKVX NSCLC
HT29 colon = test system: HT29 colon
HCC-2998 colon = test system: HCC-2998 colon
COLO 205 colon = test system: COLO 205 colon
A498 renal = test system: A498 renal
KM20L2 colon = test system: KM20L2 colon
NCI-H460 lung = test system: NCI-H460 lung
LXFL 529 NSCLC = test system: LXFL 529 NSCLC
MOLT-4 leukemia = test system: MOLT-4 leukemia
U251 CNS = test system: U251 CNS
IGROV1 ovarian = test system: IGROV1 ovarian
HCT-15 colon = test system: HCT-15 colon
DLD-1 colon = test system: DLD-1 colon
XF 498 CNS = test system: XF 498 CNS
SNB-19 CNS = test system: SNB-19 CNS
OVCAR-8 ovarian = test system: OVCAR-8 ovarian
OVCAR-4 ovarian = test system: OVCAR-4 ovarian
SNB-78 CNS = test system: SNB-78 CNS
HCT-116 colon = test system: HCT-116 colon
TK-10 renal = test system: TK-10 renal
SK-OV-3 ovarian = test system: SK-OV-3 ovarian
K-562 leukemia = test system: K-562 leukemia
UO-31 renal = test system: UO-31 renal
786-0 renal = test system: 786-0 renal
A549 NSCLC = test system: A549 NSCLC
M14 melanoma = test system: M14 melanoma
SNB-75 CNS = test system: SNB-75 CNS
ACHN renal = test system: ACHN renal
CCRF-CEM leukemia = test system: CCRF-CEM leukemia
SK-MEL-28 melanoma = test system: SK-MEL-28 melanoma
NCI-H522 lung = test system: NCI-H522 lung
HOP-92 NSCLC = test system: HOP-92 NSCLC
LOX IMVI melanoma = test system: LOX IMVI melanoma
HL-60(TB) leukemia = test system: HL-60(TB) leukemia
HOP-18 NSCLC = test system: HOP-18 NSCLC
NCI-H226 lung = test system: NCI-H226 lung
DMS 273 small cell lung = test system: DMS 273 small cell lung

COc1ccc(Cc2nccc3cc(OC)c(OC)cc23)cc1
TGI (SF-268 CNS): > 100 µM
TGI (HOP-62 NSCLC): > 100 µM
TGI (DMS 114 small cell lung): > 100 µM
TGI (SF-295 CNS): > 100 µM
TGI (KM12 colon): > 100 µM
TGI (SK-MEL-2 melanoma): > 100 µM
TGI (SN12C renal): > 100 µM
TGI (M19-MEL melanoma): > 100 µM
TGI (SK-MEL-5 melanoma): > 100 µM
TGI (OVCAR-5 ovarian): > 100 µM
TGI (RPMI-8226 leukemia): > 100 µM
TGI (SW-620 colon): > 100 µM
TGI (OVCAR-3 ovarian): > 100 µM
TGI (CAKI-1 renal): > 100 µM
TGI (UACC-62 melanoma): > 100 µM
TGI (UACC-257 melanoma): 62.2 µM
TGI (SF-539 CNS): > 100 µM
TGI (NCI-H23 lung): > 100 µM
TGI (MALME-3M melanoma): > 100 µM
TGI (EKVX NSCLC): > 100 µM
TGI (HT29 colon): > 100 µM
TGI (HCC-2998 colon): > 100 µM
TGI (COLO 205 colon): > 100 µM
TGI (A498 renal): > 100 µM
TGI (KM20L2 colon): > 100 µM
TGI (NCI-H460 lung): > 100 µM
TGI (LXFL 529 NSCLC): > 100 µM
TGI (MOLT-4 leukemia): > 100 µM
TGI (U251 CNS): > 100 µM
TGI (IGROV1 ovarian): > 100 µM
TGI (HCT-15 colon): > 100 µM
TGI (DLD-1 colon): > 100 µM
TGI (XF 498 CNS): 83.6 µM
TGI (SNB-19 CNS): > 100 µM
TGI (OVCAR-8 ovarian): > 100 µM
TGI (OVCAR-4 ovarian): > 100 µM
TGI (SNB-78 CNS): > 100 µM
TGI (HCT-116 colon): > 100 µM
TGI (TK-10 renal): > 100 µM
TGI (SK-OV-3 ovarian): > 100 µM
TGI (K-562 leukemia): > 100 µM
TGI (UO-31 renal): 90.8 µM
TGI (786-0 renal): > 100 µM
TGI (A549 NSCLC): > 100 µM
TGI (M14 melanoma): > 100 µM
TGI (SNB-75 CNS): > 100 µM
TGI (ACHN renal): > 100 µM
TGI (CCRF-CEM leukemia): > 100 µM
TGI (SK-MEL-28 melanoma): > 100 µM
TGI (NCI-H522 lung): > 100 µM

O=C(CCC(=O)Nc1ccc(Cl)c(Cl)c1)CC(=O)c1ccc(Cl)cc1
TGI (SF-268 CNS): > 100 µM
TGI (DMS 114 small cell lung): > 100 µM
TGI (SF-295 CNS): > 100 µM
TGI (KM12 colon): > 100 µM
TGI (SK-MEL-2 melanoma): > 100 µM
TGI (SN12C renal): > 100 µM
TGI (M19-MEL melanoma): > 100 µM
TGI (OVCAR-5 ovarian): > 100 µM
TGI (RPMI-8226 leukemia): > 100 µM
TGI (SW-620 colon): > 100 µM
TGI (OVCAR-3 ovarian): > 100 µM
TGI (CAKI-1 renal): > 100 µM
TGI (UACC-62 melanoma): > 100 µM
TGI (HOP-92 NSCLC): > 100 µM
TGI (UACC-257 melanoma): > 100 µM
TGI (SF-539 CNS): > 100 µM
TGI (NCI-H23 lung): > 100 µM
TGI (MALME-3M melanoma): > 100 µM
TGI (EKVX NSCLC): > 100 µM
TGI (HT29 colon): > 100 µM
TGI (LOX IMVI melanoma): > 100 µM
TGI (HCC-2998 colon): > 100 µM
TGI (COLO 205 colon): > 100 µM
TGI (A498 renal): > 100 µM
TGI (KM20L2 colon): > 100 µM
TGI (NCI-H460 lung): > 100 µM
TGI (LXFL 529 NSCLC): > 100 µM
TGI (MOLT-4 leukemia): > 100 µM
TGI (U251 CNS): > 100 µM
TGI (IGROV1 ovarian): > 100 µM
TGI (HCT-15 colon): > 100 µM
TGI (DLD-1 colon): > 100 µM
TGI (XF 498 CNS): > 100 µM
TGI (SNB-19 CNS): > 100 µM
TGI (OVCAR-8 ovarian): > 100 µM
TGI (OVCAR-4 ovarian): > 100 µM
TGI (HCT-116 colon): > 100 µM
TGI (TK-10 renal): > 100 µM
TGI (SK-OV-3 ovarian): > 100 µM
TGI (K-562 leukemia): > 100 µM
TGI (UO-31 renal): > 100 µM
TGI (786-0 renal): > 100 µM
TGI (HL-60(TB) leukemia): > 100 µM
TGI (A549 NSCLC): > 100 µM
TGI (M14 melanoma): > 100 µM
TGI (ACHN renal): > 100 µM
TGI (HOP-18 NSCLC): > 100 µM
TGI (NCI-H226 lung): > 100 µM
TGI (DMS 273 small cell lung): > 100 µM
TGI (CCRF-CEM leukemia): > 100 µM
TGI (NCI-H522 lung): > 100 µM
